Read-outs that look alike come from different tables or passages of the source.
Assays:
Experiment in all cases: kinase profiling panel
Format in all cases: biochemical
AMPK (hum) = conditions: 1 µM
Description: (§1) Protein kinase profiling against a Dundee panel of 140 protein kinases was undertaken at the International Centre for Protein Kinase Profiling. The result for each kinase was presented as a mean kinase activity of the reaction taken in triplicate relative to a control sample treated with DMSO. Assay conditions and abbreviations are available at http://www.kinase-screen.mrc.ac.uk.

CDK9-Cyclin T1 = CDK9-Cyclin T1 (Homo sapiens, UniProt P50750); conditions: read-out: % Activity Remaining
Description: as §1

MARK2 = MARK2 (Homo sapiens, UniProt Q7KZI7); conditions: read-out: % Activity Remaining
Chain of MARK2 (Q7KZI7 whole entry): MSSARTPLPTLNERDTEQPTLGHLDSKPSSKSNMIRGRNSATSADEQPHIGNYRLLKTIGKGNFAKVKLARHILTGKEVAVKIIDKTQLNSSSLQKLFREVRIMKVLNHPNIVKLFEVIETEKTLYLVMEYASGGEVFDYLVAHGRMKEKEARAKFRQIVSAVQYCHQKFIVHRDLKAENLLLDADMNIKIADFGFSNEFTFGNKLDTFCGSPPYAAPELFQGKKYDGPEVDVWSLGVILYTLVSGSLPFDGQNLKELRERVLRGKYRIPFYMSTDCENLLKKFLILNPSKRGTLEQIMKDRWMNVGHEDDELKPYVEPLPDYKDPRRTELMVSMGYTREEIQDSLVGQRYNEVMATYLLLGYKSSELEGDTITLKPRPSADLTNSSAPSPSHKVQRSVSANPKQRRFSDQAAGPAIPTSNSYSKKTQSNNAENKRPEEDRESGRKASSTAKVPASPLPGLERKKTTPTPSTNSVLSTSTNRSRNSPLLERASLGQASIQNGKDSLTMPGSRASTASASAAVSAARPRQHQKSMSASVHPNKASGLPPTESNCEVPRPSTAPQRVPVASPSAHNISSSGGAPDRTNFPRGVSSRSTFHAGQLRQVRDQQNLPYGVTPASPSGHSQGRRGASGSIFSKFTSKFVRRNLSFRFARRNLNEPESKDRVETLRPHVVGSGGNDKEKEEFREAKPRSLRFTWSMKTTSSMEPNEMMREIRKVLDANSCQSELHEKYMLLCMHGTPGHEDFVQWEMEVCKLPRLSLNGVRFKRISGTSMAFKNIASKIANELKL
Description: as §1

MEKK1 = MEKK1 (Homo sapiens, UniProt Q13233); conditions: read-out: % Activity Remaining
Description: as §1

MST2 = molecular target: T1, MST2 (Homo sapiens, UniProt Q13188); conditions: read-out: % Activity Remaining
T1 sequence (Q13188 1-491): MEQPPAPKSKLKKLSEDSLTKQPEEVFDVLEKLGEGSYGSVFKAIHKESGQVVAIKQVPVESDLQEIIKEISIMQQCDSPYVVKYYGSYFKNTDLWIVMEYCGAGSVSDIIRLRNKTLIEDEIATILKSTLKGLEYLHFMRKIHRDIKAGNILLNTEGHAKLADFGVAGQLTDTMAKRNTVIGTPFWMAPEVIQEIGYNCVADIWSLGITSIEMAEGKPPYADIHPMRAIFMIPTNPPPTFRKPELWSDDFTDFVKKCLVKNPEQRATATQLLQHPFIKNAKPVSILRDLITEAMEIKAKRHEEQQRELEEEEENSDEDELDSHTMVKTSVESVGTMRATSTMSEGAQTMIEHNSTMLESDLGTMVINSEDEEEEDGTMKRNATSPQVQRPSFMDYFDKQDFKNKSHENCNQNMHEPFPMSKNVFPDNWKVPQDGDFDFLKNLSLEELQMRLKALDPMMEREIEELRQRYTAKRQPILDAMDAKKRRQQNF
Description: as §1

PIM2 = PIM2 (Homo sapiens, UniProt Q9P1W9); conditions: read-out: % Activity Remaining
Chain of PIM2 (Q9P1W9 whole entry): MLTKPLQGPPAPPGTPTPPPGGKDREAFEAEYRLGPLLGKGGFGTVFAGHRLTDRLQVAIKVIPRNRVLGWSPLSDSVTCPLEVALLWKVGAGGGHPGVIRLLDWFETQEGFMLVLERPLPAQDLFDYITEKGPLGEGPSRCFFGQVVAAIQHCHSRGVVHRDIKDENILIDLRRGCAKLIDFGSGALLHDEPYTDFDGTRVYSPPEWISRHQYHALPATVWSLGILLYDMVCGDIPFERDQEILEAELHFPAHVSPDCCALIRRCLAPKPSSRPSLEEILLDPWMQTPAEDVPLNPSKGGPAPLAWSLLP
Description: as §1

TIE2 = TIE2 (Homo sapiens, UniProt Q02763); conditions: read-out: % Activity Remaining
Chain of TIE2 (Q02763 23-1124): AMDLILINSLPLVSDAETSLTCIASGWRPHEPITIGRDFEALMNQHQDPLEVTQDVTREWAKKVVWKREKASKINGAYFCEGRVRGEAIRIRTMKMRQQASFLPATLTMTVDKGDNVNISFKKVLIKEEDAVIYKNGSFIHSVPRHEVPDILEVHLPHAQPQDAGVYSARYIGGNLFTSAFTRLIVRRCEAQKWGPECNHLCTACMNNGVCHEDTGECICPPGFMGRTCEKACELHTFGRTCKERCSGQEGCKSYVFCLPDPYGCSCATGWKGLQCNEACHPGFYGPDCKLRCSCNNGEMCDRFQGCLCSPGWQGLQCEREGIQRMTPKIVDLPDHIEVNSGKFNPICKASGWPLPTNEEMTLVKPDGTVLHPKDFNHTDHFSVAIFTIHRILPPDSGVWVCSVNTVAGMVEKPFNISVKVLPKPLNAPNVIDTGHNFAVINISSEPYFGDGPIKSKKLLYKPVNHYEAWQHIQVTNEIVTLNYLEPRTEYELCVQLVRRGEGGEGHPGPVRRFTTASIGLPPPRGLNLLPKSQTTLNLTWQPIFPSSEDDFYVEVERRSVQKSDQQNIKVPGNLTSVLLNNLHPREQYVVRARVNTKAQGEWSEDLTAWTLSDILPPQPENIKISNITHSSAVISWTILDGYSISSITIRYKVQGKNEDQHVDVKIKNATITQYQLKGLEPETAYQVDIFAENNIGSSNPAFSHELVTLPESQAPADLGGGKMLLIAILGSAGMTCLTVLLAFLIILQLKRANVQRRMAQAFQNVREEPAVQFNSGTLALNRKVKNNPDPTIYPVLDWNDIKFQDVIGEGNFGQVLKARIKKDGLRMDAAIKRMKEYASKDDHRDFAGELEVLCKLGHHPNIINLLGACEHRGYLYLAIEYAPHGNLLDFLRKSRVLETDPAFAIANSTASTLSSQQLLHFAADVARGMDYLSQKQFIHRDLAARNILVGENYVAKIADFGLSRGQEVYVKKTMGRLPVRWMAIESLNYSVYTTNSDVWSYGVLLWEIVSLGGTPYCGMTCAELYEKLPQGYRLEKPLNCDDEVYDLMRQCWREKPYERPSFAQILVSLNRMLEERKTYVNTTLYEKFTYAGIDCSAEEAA
Description: as §1

TLK1 = molecular target: T2, TLK1 (Homo sapiens, UniProt Q9UKI8); conditions: read-out: % Activity Remaining
T2 sequence (Q9UKI8 1-766): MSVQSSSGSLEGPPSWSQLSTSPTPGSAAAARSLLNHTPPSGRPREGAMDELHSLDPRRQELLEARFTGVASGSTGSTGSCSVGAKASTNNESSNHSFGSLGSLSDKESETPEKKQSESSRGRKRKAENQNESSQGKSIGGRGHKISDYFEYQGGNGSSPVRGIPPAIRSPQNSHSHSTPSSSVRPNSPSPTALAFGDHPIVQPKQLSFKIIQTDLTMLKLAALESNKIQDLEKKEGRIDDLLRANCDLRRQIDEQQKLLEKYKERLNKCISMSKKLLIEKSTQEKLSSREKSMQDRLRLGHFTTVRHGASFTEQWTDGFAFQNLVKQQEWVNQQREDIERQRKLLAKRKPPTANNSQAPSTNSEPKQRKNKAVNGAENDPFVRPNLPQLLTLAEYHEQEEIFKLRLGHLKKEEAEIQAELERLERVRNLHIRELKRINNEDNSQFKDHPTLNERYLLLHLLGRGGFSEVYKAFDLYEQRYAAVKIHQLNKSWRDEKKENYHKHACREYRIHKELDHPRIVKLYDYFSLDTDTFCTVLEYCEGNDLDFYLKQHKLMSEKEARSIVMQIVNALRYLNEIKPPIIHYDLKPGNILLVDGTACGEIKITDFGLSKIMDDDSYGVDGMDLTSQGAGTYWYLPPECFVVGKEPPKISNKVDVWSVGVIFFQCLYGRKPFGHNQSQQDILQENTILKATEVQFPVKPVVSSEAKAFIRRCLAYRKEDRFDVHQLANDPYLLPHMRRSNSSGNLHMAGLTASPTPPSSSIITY
Description: as §1

ULK2 = molecular target: T3, ULK2 (Homo sapiens, UniProt Q8IYT8); conditions: read-out: % Activity Remaining
T3 sequence (Q8IYT8 1-1036): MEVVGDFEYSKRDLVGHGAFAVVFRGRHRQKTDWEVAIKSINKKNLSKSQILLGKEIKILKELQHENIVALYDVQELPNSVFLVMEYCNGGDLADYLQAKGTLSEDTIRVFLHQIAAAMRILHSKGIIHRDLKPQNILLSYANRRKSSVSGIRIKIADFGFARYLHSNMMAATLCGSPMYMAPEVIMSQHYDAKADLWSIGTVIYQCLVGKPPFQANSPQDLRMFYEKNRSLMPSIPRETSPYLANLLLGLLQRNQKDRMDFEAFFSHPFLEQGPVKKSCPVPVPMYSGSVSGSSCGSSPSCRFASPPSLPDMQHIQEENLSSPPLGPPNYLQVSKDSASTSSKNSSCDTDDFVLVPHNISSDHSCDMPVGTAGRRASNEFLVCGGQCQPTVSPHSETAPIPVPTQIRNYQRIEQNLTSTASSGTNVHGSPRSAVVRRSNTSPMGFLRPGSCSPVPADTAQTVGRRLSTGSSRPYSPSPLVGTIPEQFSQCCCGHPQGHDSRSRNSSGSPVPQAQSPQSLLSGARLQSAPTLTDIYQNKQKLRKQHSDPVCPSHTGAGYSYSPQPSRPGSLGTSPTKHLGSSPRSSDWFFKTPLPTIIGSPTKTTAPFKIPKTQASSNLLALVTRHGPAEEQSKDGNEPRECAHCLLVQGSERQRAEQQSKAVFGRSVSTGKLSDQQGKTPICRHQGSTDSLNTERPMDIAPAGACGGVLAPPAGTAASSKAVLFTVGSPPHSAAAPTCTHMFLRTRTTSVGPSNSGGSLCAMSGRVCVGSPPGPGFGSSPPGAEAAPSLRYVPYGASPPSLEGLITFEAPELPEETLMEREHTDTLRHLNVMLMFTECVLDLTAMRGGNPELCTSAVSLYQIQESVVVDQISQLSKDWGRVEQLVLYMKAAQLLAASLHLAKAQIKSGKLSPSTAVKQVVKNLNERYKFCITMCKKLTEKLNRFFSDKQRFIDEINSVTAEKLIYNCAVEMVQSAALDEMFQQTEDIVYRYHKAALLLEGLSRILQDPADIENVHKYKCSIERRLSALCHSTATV
Description: as §1

WNK1 = WNK1 (Homo sapiens, UniProt Q9H4A3); conditions: read-out: % Activity Remaining
Chain of WNK1 (Q9H4A3 whole entry): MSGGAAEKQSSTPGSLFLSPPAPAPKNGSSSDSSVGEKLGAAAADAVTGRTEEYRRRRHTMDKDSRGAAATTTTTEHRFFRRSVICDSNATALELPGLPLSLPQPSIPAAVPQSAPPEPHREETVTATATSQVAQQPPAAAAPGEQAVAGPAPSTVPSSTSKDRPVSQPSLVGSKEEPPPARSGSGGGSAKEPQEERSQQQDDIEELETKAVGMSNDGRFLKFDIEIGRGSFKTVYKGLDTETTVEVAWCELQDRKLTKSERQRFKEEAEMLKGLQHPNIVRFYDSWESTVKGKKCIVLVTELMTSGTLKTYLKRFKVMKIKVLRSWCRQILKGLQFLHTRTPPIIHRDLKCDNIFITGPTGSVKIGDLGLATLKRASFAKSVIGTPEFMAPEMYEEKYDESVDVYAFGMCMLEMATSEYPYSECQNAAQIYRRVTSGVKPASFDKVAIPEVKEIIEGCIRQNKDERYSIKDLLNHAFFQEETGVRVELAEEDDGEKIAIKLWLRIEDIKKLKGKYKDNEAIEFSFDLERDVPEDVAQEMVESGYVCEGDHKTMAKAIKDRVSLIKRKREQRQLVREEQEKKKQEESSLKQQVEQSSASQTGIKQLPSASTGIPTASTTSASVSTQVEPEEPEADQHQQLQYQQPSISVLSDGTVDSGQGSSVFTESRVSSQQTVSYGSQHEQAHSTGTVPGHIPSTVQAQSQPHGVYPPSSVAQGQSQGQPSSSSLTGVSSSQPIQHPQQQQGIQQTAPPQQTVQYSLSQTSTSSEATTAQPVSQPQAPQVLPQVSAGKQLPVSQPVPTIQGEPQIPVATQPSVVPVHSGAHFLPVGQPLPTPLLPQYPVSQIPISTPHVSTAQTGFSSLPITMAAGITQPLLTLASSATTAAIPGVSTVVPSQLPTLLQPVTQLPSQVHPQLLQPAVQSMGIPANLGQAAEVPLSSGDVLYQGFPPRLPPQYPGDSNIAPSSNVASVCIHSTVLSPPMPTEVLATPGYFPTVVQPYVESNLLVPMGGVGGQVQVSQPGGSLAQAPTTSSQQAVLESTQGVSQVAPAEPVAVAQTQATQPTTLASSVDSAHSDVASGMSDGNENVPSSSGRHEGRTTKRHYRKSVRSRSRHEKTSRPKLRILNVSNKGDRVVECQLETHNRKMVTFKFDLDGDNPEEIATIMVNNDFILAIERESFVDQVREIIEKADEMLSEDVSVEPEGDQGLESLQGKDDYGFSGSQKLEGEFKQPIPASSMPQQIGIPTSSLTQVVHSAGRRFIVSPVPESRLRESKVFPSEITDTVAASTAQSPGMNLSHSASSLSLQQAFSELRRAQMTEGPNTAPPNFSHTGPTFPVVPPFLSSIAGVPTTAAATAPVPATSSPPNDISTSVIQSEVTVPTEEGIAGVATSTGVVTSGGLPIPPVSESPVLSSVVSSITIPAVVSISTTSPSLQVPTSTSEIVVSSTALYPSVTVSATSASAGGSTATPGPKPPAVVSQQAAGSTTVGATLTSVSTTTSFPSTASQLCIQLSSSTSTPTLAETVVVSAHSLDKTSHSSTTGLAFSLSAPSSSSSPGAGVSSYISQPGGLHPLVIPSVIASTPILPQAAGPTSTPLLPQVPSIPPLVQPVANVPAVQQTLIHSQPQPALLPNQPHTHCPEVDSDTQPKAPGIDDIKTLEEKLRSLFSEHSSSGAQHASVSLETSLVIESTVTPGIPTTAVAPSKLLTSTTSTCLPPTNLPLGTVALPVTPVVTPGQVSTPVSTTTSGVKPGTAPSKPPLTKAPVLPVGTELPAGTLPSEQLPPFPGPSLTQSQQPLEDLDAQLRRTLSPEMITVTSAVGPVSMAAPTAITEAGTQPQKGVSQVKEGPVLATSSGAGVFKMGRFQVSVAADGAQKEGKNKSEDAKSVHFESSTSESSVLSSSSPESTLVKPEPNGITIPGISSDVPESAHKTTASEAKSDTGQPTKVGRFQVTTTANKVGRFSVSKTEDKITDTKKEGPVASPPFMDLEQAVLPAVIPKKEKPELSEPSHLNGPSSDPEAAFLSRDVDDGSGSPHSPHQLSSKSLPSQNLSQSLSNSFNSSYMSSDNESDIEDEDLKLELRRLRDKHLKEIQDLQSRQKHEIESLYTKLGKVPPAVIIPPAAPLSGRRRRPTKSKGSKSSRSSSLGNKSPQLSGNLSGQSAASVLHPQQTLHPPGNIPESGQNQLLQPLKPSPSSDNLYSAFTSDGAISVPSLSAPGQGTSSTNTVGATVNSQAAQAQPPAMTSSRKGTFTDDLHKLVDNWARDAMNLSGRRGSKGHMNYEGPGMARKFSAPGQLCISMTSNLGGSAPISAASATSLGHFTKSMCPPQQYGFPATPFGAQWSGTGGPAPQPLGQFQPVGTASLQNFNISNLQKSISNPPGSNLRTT
Description: as §1

Compound | % Activity Remaining (AMPK (hum)) | remaining activity at 1 µM (CDK9-Cyclin T1; 1 µM) | remaining activity at 1 µM (MARK2; 1 µM) | remaining activity at 1 µM (MEKK1; 1 µM) | remaining activity at 1 µM (MST2; 1 µM) | remaining activity at 1 µM (PIM2; 1 µM) | remaining activity at 1 µM (TIE2; 1 µM) | remaining activity at 1 µM (TLK1; 1 µM) | remaining activity at 1 µM (ULK2; 1 µM) | remaining activity at 1 µM (WNK1; 1 µM) | remaining activity at 1 µM (CDK9-Cyclin T1) | remaining activity at 1 µM (MARK2) | remaining activity at 1 µM (MEKK1) | remaining activity at 1 µM (MST2) | remaining activity at 1 µM (PIM2) | remaining activity at 1 µM (TIE2) | remaining activity at 1 µM (TLK1) | remaining activity at 1 µM (ULK2) | remaining activity at 1 µM (WNK1)
Cc1ccc(F)c(S(=O)(=O)Nc2ccc(-c3nc(OC[C@H]4CN(CCCCCCOCCOCCOCC(=O)N[C@H](C(=O)N5C[C@H](O)C[C@H]5C(=O)NCc5ccc(-c6scnc6C)cc5)C(C)(C)C)CCO4)c4cn[nH]c4n3)cc2)c1 [SGK3-PROTAC1] | 105% | 103% | 102% | 124% | 112% | 98% | 64% | 102% | 103% | 94% |  |  |  |  |  |  |  |  | 
Cc1ccc(F)c(S(=O)(=O)Nc2ccc(-c3nc(OC[C@H]4CNCCO4)c4cn[nH]c4n3)cc2)c1 [308-R, reference compound] | 78% |  |  |  |  |  |  |  |  |  | 63% | 94% | 115% | 86% | 127% | 51% | 108% | 59% | 75%
COc1ccc(Cl)c(S(=O)(=O)Nc2ccc(-c3nc(OC[C@H]4CNCCO4)c4c(C)n[nH]c4n3)cc2)c1 [290-R, reference compound] | 15% |  |  |  |  |  |  |  |  |  | 105% | 113% | 112% | 105% | 105% | 17% | 89% | 46% | 110%
Cc1ccc(F)c(S(=O)(=O)Nc2ccc(-c3nc(OC[C@H]4CN(CCCCCCOCCOCCOCC(=O)N[C@H](C(=O)N5C[C@@H](O)C[C@H]5C(=O)NCc5ccc(-c6scnc6C)cc5)C(C)(C)C)CCO4)c4cn[nH]c4n3)cc2)c1 [cisSGK3-PROTAC1] | 108% | 105% | 112% | 128% | 100% | 105% | 81% | 109% | 117% | 97% |  |  |  |  |  |  |  |  | 
